Measurements published in article PMC6811436, “Epithelial Lining Fluid and Plasma Concentrations of Dalbavancin in Healthy Adults after a Single 1,500-Milligram Infusion” (Antimicrobial Agents and Chemotherapy, 2019).
Read-outs that look alike come from different tables or passages of the source.

Columns and labels:
[1] = cited from earlier work
Excerpt: (§1) Dalbavancin is 93% protein bound in plasma ([1]), and the pharmacokinetic/pharmacodynamic (PK/PD) parameter best associated with efficacy is area under the concentratio ...

[2] = test system: penicillin-resistant S. pneumoniae; conditions: single dose, rats with lobar pneumonia; cited from earlier work
Excerpt: (§2) Dalbavancin has been used off label for treatment of MRSA pneumonia in a patient treated with vancomycin who ...

S. pneumoniae [3] = conditions: single dose; immunocompetent and neutropenic rats; penicillin-susceptible and penicillin-resistant S. pneumoniae; cited from earlier work
Excerpt: as §2

MRSA = conditions: one patient switched from vancomycin to dalbavancin 1,500 mg; cited from earlier work
Excerpt: as §2

[4] = cited from earlier work; remark: listed apart in the source
S. pneumoniae [5] = test system: S. pneumoniae; design: method as in earlier work; conditions: cited from earlier work
Excerpt: as §1

S. aureus [6] = test system: S. aureus; design: method as in earlier work; conditions: cited from earlier work
Excerpt: as §1

[7] = previously established, cited from earlier work
Description: The bioanalysis was conducted to meet current regulated bioanalysis requirements. The sensitivity, accuracy, precision, recovery, carryover, and matrix effect were established, and study samples were analyzed within established appropriate stabilities to cover sample collection, storage, and analysis. Dalbavancin plasma sample stability has previously been established for 368 days at −20 °C and for 56 days at −70°C. Stability of dalbavancin in HUF was established for 46 days at −70 °C. Plasma (370 samples) and ELF (35 samples; samples for each ELF time point collected on 3 BMS probes and analy ...

[8] = cited from earlier work; remark: listed apart in the source
Description: This study evaluated the PK of dalbavancin in ELF and plasma up to 7 days after a single 1,500-mg i.v. infusion in healthy Japanese subjects. Dalbavancin was detectable in bronchial ELF at the earliest time point (4 h postdose) and sustained for ≥7 days, exceeding the MIC90s of S. pneumoniae and S. aureus. While drug exposure at the site of infection is essential for antibacterial activity, the PK/PD parameter associated with efficacy for dalbavancin is AUC/MIC ([3]).

[9] = Epithelial lining fluid (ELF) concentrations by bronchial microsampling after a single 1,500-mg infusion; conditions: for Dalbavancin concn, ELF (median) / Dalbavancin concn, ELF (mean [SD]): 1,500 mg i.v., LC-MS/MS
Description: (§3) A phase 1 open-label, single-dose, safety, tolerability, and PK study of ELF and plasma concentrations of dalbavancin was conducted between May and June 2015 at the SOUSEIKAI Hakata Clinic in Fukuoka, Japan. The study was approved by the local institutional review board at the site. Thirty-seven healthy, nonsmoking Japanese adult subjects received a 1,500-mg dose of dalbavancin infused for 30 ± 2 min. Thirty-five subjects (5 enrolled in each of 7 cohorts) had bronchoscopy with bronchial microsampling of ELF using a microsampling probe (BC-401C; Olympus, Tokyo, Japan), as described previously ([9]), at one of seven time points from the start of dalbavancin infusion (4, 8, 12, 24, 72, 120, and 168 h). Topical lidocaine viscous was used for gargling; 4% lidocaine liquid by aerosol spray was then used for topical anesthesia in the larynx, followed by bronchoscopy, with additional 1% or 2% lidocaine applied to the vocal cords and lower airway as needed. Sedation was allowed per local standard of care. In the BMS procedure, microsampling catheter sponge probes were inserted carefully through a fiberoptic bronchoscope into the peripheral airways of the right lower lobe, with the inner probe gently in contact with the bronchial lumen for 15 s. Three unique probe samples were obtained from each subject for a specific time point. The tips of the probe samples were cut at 3 cm from the tip of each probe, and each time point sample consisted of three probes placed in a vial for analysis. Ten blood PK samples were collected into K2EDTA vacutainers from all 37 subjects up to 168 h postdose (0.5, 1, 2, 4, 8, 12, 24, 72, 120, and 168 h), and plasma was harvested for sample bioanalysis.
(§4) The dalbavancin ELF and plasma concentrations were measured using a validated liquid chromatography-tandem mass spectrometry (LC-MS/MS) method in each matrix ([14]). The bioanalytical methods were validated at Tandem Labs (West Trenton, NJ) under sponsor oversight. (Covance is the brand of Covance, Inc., and used by Tandem Labs, Inc., and NWT, Inc., wholly owned subsidiaries of Laboratory Corporation of America Holdings.) Because ELF can only be collected via invasive techniques, validation of the method in ELF was conducted in a surrogate matrix of human serum ultrafiltrate (HUF).
(§5) The plasma LC-MS/MS method was validated on an API 4000 (Sciex, Framingham, MA) using plasma protein precipitation for sample cleanup before injection for detection of the analytes of interest. Detection was carried out using positive-mode electrospray with selected reaction monitoring for the mass spectrometer operation mode. In plasma, the calibration range was validated from 0.500 to 500 μg/ml using 50 μl plasma for each analysis, with a lower limit of quantification (LLOQ) of 0.500 μg/ml. The ELF LC-MS/MS method was validated on an API 5000 (Sciex) using dilution for sample preparation before analysis. For ELF, the calibration range was validated from 0.010 to 2.00 μg/ml using 75 μl sample volume (study sample[s] consisted of ELF; and standards, blanks, and quality controls consisted of HUF in extraction solvent of 40:60 acetonitrile:water), with an LLOQ of 0.010 μg/ml. Detection was carried out using positive-mode electrospray with selected reaction monitoring for the mass spectrometer operation mode. A structural analog of dalbavancin, diethylamide of dalbavancin, was used as an internal standard in both methods in support of quantitation of dalbavancin.
(§6) Statistical analyses of safety parameters were performed using version 9.3 of SAS (SAS Institute, Inc., Cary, NC) on a LINUX operating system. Noncompartmental PK parameters based on plasma and ELF dalbavancin concentrations were determined for individual subjects, and descriptive statistics were performed using the software program Phoenix WinNonlin (version 6.2; Pharsight Corporation, Cary, NC). Plasma concentrations below the LLOQ were treated as 0 for all PK calculations.

S. pneumoniae [10] = conditions: in vivo, iv
S. aureus [11] = conditions: in vivo, iv
[12] = Plasma pharmacokinetics after a single 1,500-mg i.v. dalbavancin infusion, phase 1 study; conditions: for Dalbavancin concn, calculated unbound plasma (median): 1,500 mg i.v.
Description: as §3, §4, §5, §6

[13] = Safety and tolerability in the phase 1 study; type: in vivo, human; conditions: 37 subjects; 1,500 mg i.v. single dose
Excerpt: Key inclusion criteria were age between 20 and 55 years and body mass index (BMI) between 18 and 30 kg/m^2. […] Subjects were assigned to cohorts on a first-come, first-served basis. Safety data were collected at each visit (screening [days −28 to −3], baseline [days −3 to −1], and days 1, 2, 4, 6, and 8 to 9) and included adverse events, physical examination, chemistry and hematology assessments (screening/baseline, day 8 to 9), and chest X ray (at screening, to exclude subjects with lung disease, and on the day after BMS sampling).

[14] = 8 healthy subjects, 1,500 mg dalbavancin, ref Allergan, data on file
[15] = 1,500 mg i.v. single dose, bronchial microsampling
[16] = 8 h, bronchial microsampling, 5 subjects
[17] = 12 h, bronchial microsampling, 5 subjects
[18] = 24 h, bronchial microsampling, 5 subjects
[19] = 72 h, bronchial microsampling, 5 subjects
[20] = 120 h, bronchial microsampling, 5 subjects

For `CN[C@H]1C(=O)N[C@@H]2Cc3ccc(cc3)Oc3cc4cc(c3O[C@@H]3O[C@H](C(=O)O)[C@@H](O)[C@H](O)[C@H]3NC(=O)CCCCCCCCC(C)C)Oc3ccc(cc3Cl)[C@@H](O)[C@@H]3NC(=O)[C@H](NC(=O)[C@@H]4NC(=O)[C@@H](NC2=O)c2cc(cc(O)c2Cl)Oc2cc1ccc2O)c1ccc(O)c(c1)-c1c(O[C@H]2O[C@H](CO)[C@@H](O)[C@H](O)[C@@H]2O)cc(O)cc1[C@@H](C(=O)NCCCN(C)C)NC3=O` [Dalbavancin], the “protein bound in plasma” value [1] is listed as 93%, the terminal half-life [1] is listed as 14.4 days and the “time plasma concentrations maintained above the MIC90 for most Gram-positive pathogens, including S. aureus” value ([1]; single dose of 1,500 mg i.v.) is listed as “at least 2 weeks”. The lung bacterial load [2] was “significant reduction in the lung bacterial load”, the “bacterial counts in the lungs” value (S. pneumoniae [3]) was “reduction of bacterial counts observed in the lungs” and the “MRSA in sputum cultures” value (MRSA) was “subsequent clearance of MRSA in sputum cultures”. For the same molecule, the solubility in saline [4] was “not soluble in saline”, the “effect of surfactant on in vitro activity” value (S. pneumoniae [5]) was “does not appear to be appreciably affected by the presence of surfactant” and the “effect of surfactant on in vitro activity” value (S. aureus [6]) was “does not appear to be appreciably affected by the presence of surfactant”. The “plasma sample stability established for” value ([7]; −20 °C) was 368 days, the “plasma sample stability established for” value ([7]; −70°C) was 56 days and the “plasma AUC0–24, mean (SD)” value [8, 14] was 5,202.55 (620.05) μg · h/ml. For the same molecule, the “plasma Cmax, mean (SD)” value [8, 14] was 467.63 (55.73) μg/ml, the “mean Tmax” value ([8]; 8 healthy subjects, 1,500 mg, range 0.5 to 0.5, ref Allergan, data on file) was 30 min and the “median Tmax” value ([8]; 49 subjects, 1,500 mg dalbavancin) was 37.2 min. For the same molecule, the “ELF AUC0–168 (median)” value [9, 15] was 527 µg·h/mL, the “ELF Cmax (median)” value [9, 15] was 4 µg/mL and the “ELF Tmax (median)” value [9, 15] was 72 h. For the same molecule, the “Dalbavancin concn, ELF (median)” value ([9]; 4 h, bronchial microsampling, 5 subjects per time point) was 1.9 µg/mL, the “Dalbavancin concn, ELF (mean [SD])” value ([9]; 4 h, bronchial microsampling, 5 subjects) was 1.9 (1.0) μg/ml and the “Dalbavancin concn, ELF (mean [SD])” value [9, 16] was 3.1 (1.9) μg/ml. For the same molecule, the “Dalbavancin concn, ELF (median)” value [9, 16] was 2.2 µg/mL, the “Dalbavancin concn, ELF (mean [SD])” value [9, 17] was 3.6 (2.1) μg/ml and the “Dalbavancin concn, ELF (median)” value [9, 17] was 2.8 µg/mL. The “Dalbavancin concn, ELF (mean [SD])” value [9, 18] was 2.7 (0.5) μg/ml, the “Dalbavancin concn, ELF (median)” value [9, 18] was 2.6 µg/mL and the “Dalbavancin concn, ELF (mean [SD])” value [9, 19] was 7.3 (8.2) μg/ml. The “Dalbavancin concn, ELF (median)” value [9, 19] was 4.2 µg/mL, the “Dalbavancin concn, ELF (mean [SD])” value [9, 20] was 11.9 (20.1) μg/ml and the “Dalbavancin concn, ELF (median)” value [9, 20] was 3.3 µg/mL. For the same molecule, the “Dalbavancin concn, ELF (median)” value ([9]; 168 h (7 days), bronchial microsampling, 5 subjects) was 2.1 µg/mL, the “Dalbavancin concn, ELF (mean [SD])” value ([9]; 168 h, bronchial microsampling, 5 subjects) was 2.0 (0.6) μg/ml and the “penetration of dalbavancin into ELF” value ([9]; ratio of AUC in ELF to unbound AUC in plasma (7% of AUC0–168)) was 36%. For the same molecule, the “time ELF levels exceeded the MIC90 of S. pneumoniae” value (S. pneumoniae [10]) was ≥ 7 days, the “time ELF levels exceeded the MIC90 of S. aureus” value (S. aureus [11]) was ≥ 7 days and the “plasma AUC0–168, mean (SD)” value ([12]; 1,500 mg i.v. single dose, noncompartmental) was 21,087 (2,282) μg · h/ml. For the same molecule, the “Dalbavancin concn, calculated unbound plasma (median)” value ([12]; 4 h, calculated with 93% protein binding (unbound fraction 7%)) was 20 µg/mL, the “Dalbavancin concn, calculated unbound plasma (median)” value ([12]; 8 h, calculated with unbound fraction 7%) was 16 µg/mL and the “Dalbavancin concn, calculated unbound plasma (median)” value ([12]; 12 h, calculated with unbound fraction 7%) was 14 µg/mL. The “Dalbavancin concn, calculated unbound plasma (median)” value ([12]; 24 h, calculated with unbound fraction 7%) was 12 µg/mL, the “Dalbavancin concn, calculated unbound plasma (median)” value ([12]; 72 h, calculated with unbound fraction 7%) was 8 µg/mL and the “Dalbavancin concn, calculated unbound plasma (median)” value ([12]; 120 h, calculated with unbound fraction 7%) was 7 µg/mL. For the same molecule, the “Dalbavancin concn, calculated unbound plasma (median)” value ([12]; 168 h, calculated with unbound fraction 7%) was 6 µg/mL, the Tmax ([12]; human, in vivo, iv) was 30 min and the clearance ([12]; human, in vivo, iv) was 0.683 mL/min. For the same molecule, the level at 0.5 h ([12]; human, in vivo, iv, 1500 mg) was 442 µg/mL, the level at 1 h ([12]; human, in vivo, iv, 1500 mg) was 397 µg/mL and the level at 2 h ([12]; human, in vivo, iv, 1500 mg) was 331 µg/mL. It also gave a level at 8 h ([12]; human, in vivo, iv, 1500 mg) of 222 µg/mL, a level at 12 h ([12]; human, in vivo, iv, 1500 mg) of 194 µg/mL and a level at 24 h ([12]; human, in vivo, iv, 1500 mg) of 169 µg/mL. The level at 72 h ([12]; human, in vivo, iv, 1500 mg) was 120 µg/mL, the level at 120 h ([12]; human, in vivo, iv, 1500 mg) was 94 µg/mL and the clinical laboratory parameters [13] was “no observed safety concerns in clinical laboratory parameters”. For the same molecule, the “serious AEs” value [13] was “no serious AEs”, the “severity of treatment-emergent AEs” value [13] was “all were mild” and the “subjects with at least one treatment-emergent adverse event (AE)” value [13] was “Five”. The “treatment-emergent AEs leading to withdrawal from study-drug therapy” value [13] was “no treatment-emergent AEs leading to withdrawal from study-drug therapy”.
